Results published in ChEMBL document CHEMBL1649061, “Synthesis and pharmacological evaluation of N-(3-(1H-indol-4-yl)-5-(2-methoxyisonicotinoyl)phenyl)methanesulfonamide (LP-261), a potent antimitotic agent” (J Med Chem, 2011).
Calls of active or inactive are those of the source. No cut-off for these calls is given here.

What was measured:
[1] = system: SW-620; assay: Cytotoxicity against human SW620 cells after 48 to 72 hrs by […] assay; assay type: functional, cell-based
[2] = system: U-266; assay: Cell cycle arrest in human U266 cells assessed as accumulation at G2/M phase after 24 hrs using propidium iodide staining by FACS analysis; assay type: functional, cell-based; settings: U-266, 24 h
[3] = Cytotoxicity against human NCI-ADR-RES expressing MDR1 cells after 48 to 72 hrs by […] assay; assay type: functional, cell-based
[4] = system: A2780; assay: Cytotoxicity against human A2780 cells after 48 to 72 hrs by […] assay; assay type: functional, cell-based
[5] = system: BXPC-3; assay: Cell cycle arrest in human BxPC3 cells assessed as accumulation at G2/M phase after 24 hrs using propidium iodide staining by FACS analysis; assay type: functional, cell-based; settings: BXPC-3, 24 h
[6] = system: MCF7; assay: Cell cycle arrest in human MCF7 cells assessed as accumulation at G2/M phase after 24 hrs using propidium iodide staining by FACS analysis; assay type: functional, cell-based; settings: MCF7, 24 h
[7] = system: HeLa; assay: Cytotoxicity against human HeLa cells after 48 to 72 hrs by […] assay; assay type: functional, cell-based
[8] = system: PC-3; assay: Cell cycle arrest in human PC3 cells assessed as accumulation at G2/M phase after 24 hrs using propidium iodide staining by FACS analysis; assay type: functional, cell-based; settings: PC-3, 24 h
[9] = system: NCI-H23; assay: Cell cycle arrest in human NCI-H23 cells assessed as accumulation at G2/M phase after 24 hrs using propidium iodide staining by FACS analysis; assay type: functional, cell-based; settings: NCI-H23, 24 h
[10] = Inhibition of tubulin polymerization after 60 mins
[11] = Displacement of [3H]colchicine from tubulin at 30 uM
[12] = Oral bioavailability in Sprague-Dawley rat at 20 mg/kg; assay type: ADME, organism-based; settings: in vivo
[13] = system: Jurkat; assay: Cell cycle arrest in human Jurkat cells assessed as accumulation at G2/M phase after 24 hrs using propidium iodide staining by FACS analysis
[14] = system: SW-620; assay: Cell cycle arrest in human SW620 cells assessed as accumulation at G2/M phase after 24 hrs using propidium iodide staining by FACS analysis; assay type: functional, cell-based; settings: SW-620, 24 h
[15] = system: NCI-H522; assay: Cell cycle arrest in human NCI-H522 cells assessed as accumulation at G2/M phase after 24 hrs using propidium iodide staining by FACS analysis; assay type: functional, cell-based; settings: NCI-H522, 24 h

Structure (SMILES) | IC50 [1] | IC50 [2] | IC50 [3] | IC50 [4] | IC50 [5] | IC50 [6] | IC50 [7] | IC50 [8] | IC50 [9] | EC50 [10] | inhibition [11] | bioavailability [12] | IC50 [13] | IC50 [14] | IC50 [15]
CC(=O)Nc1cc(C(=O)c2cc(C)nc(N3CCOCC3)c2)cc(-c2cccc3[nH]ccc23)c1 | 450 nM | 20 nM | 1100 nM | 350 nM | 70 nM | 10 nM | 490 nM | 50 nM | 40 nM | – | – | – | – | – | –
CC[C@]1(O)C[C@H]2CN(CCc3c([nH]c4ccccc34)[C@@](C(=O)OC)(c3cc4c(cc3OC)N(C=O)[C@H]3[C@@](O)(C(=O)OC)[C@H](OC(C)=O)[C@]5(CC)C=CCN6CC[C@]43[C@@H]65)C2)C1 [VINCRISTINE] | – | – | – | – | – | – | – | – | – | 2500 nM | inactive | – | – | – | –
Oc1cc(Nc2cccnc2)cc(-c2cccc3[nH]ccc23)c1 | – | – | – | – | – | – | – | – | – | – | – | 24% | – | – | –
CC(=O)O[C@H]1C(=O)[C@@]2(C)[C@H]([C@H](OC(=O)c3ccccc3)[C@]3(O)C[C@H](OC(=O)[C@H](O)[C@@H](NC(=O)c4ccccc4)c4ccccc4)C(C)=C1C3(C)C)[C@]1(OC(C)=O)CO[C@@H]1C[C@@H]2O [PACLITAXEL] | 30 nM | – | 13000 nM | 10 nM | – | – | 20 nM | – | – | – | – | – | – | – | –
COc1ccc(S(=O)(=O)Nc2cccnc2Nc2ccc(O)cc2)cc1 [ABT-751] | 190 nM | – | 290 nM | 170 nM | – | – | 270 nM | – | – | – | – | – | 160 nM | – | –
COC(=O)Nc1cc(C(=O)c2ccnc(N3CCOCC3)c2)cc(-c2cccc3[nH]ccc23)c1 | 250 nM | 120 nM | 300 nM | 220 nM | 10 nM | 30 nM | 280 nM | 20 nM | 30 nM | 4600 nM | – | – | – | – | –
COc1cc2c(c(OC)c1OC)-c1ccc(OC)c(=O)cc1[C@@H](NC(C)=O)CC2 [COLCHICINE] | – | 10 nM | – | – | 16 nM | – | – | 33 nM | 13 nM | 2000 nM | 79% | – | 17 nM | 14 nM | 14 nM
